Test results reported in ChEMBL document CHEMBL3085750, “Discovery of 2-methylpyridine-based biaryl amides as γ-secretase modulators for the treatment of Alzheimer's disease” (Bioorg Med Chem Lett, 2013).

Experiments:
[1] = biological target: Gamma-secretase; experiment: Modulation of gamma-secretase in HEK293 cells expressing guinea pig Swedish mutant SFV-APP695sw assessed as inhibition of amyloid beta-42 production after 16 to 18 hrs by HTRF assay; type: cell-based, Homo sapiens
[2] = Metabolic stability in human liver microsomes at 1 uM after 30 mins; type: ADME; conditions: read-out: Stability
[3] = Metabolic stability in rat liver microsomes at 1 uM after 30 mins; type: ADME; conditions: read-out: Stability
[4] = biological target: Cytochrome P450 2D6 (Homo sapiens, UniProt P10635); experiment: Inhibition of CYP2D6 (unknown origin) after 10 mins; type: ADME
[5] = biological target: Cytochrome P450 3A4 (Homo sapiens, UniProt P08684); experiment: Inhibition of CYP3A4 (unknown origin) after 5 mins; type: ADME
[6] = Ratio of drug level in brain to plasma in mouse at 10 mg/kg, po after 2 hrs; type: ADME, organism-based; set-up: dose 10 mg/kg, route oral; conditions: read-out: BPR

Sequence of Cytochrome P450 2D6 (P10635 whole entry): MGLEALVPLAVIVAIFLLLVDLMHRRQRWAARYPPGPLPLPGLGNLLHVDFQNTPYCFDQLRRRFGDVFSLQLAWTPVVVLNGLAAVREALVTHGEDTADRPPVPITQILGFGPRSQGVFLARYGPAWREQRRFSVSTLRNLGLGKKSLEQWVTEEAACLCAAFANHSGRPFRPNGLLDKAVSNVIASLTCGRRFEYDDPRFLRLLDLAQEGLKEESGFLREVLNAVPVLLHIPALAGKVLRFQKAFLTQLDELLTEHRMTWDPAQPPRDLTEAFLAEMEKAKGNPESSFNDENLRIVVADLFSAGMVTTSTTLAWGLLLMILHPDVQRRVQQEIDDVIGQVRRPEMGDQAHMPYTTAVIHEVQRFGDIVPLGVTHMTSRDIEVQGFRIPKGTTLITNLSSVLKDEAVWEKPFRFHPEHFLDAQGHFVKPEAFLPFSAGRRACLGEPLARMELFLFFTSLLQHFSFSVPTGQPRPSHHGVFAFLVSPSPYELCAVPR
Sequence of Cytochrome P450 3A4 (P08684 whole entry): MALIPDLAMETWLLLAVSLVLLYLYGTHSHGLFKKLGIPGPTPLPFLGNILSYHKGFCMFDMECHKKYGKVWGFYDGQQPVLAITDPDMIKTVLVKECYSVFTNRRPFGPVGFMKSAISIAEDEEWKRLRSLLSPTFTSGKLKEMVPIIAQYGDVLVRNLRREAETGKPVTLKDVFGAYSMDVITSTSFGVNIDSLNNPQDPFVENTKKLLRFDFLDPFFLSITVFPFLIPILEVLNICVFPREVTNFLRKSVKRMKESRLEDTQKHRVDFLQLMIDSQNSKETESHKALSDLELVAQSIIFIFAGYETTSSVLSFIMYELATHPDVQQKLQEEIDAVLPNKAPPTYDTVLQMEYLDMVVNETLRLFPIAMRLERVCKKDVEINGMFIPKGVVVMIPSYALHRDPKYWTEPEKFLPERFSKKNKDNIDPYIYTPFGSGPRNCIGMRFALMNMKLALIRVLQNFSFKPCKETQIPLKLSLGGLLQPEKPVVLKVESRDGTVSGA

An IC50 [1] of 150 nM was found for `Cc1cc(-c2ccc(NC(=O)C(C)c3cccc(-c4ccc(N5CCOCC5)nc4)c3)cc2)ccn1` (configuration not stated) in this work.

An IC50 [1] of 7000 nM was found for `Cc1cc(-c2ccc(NC(=O)C(C)c3cc(C#N)cc(C(F)(F)F)c3)cc2)ccn1` (configuration not stated) in this work.

An IC50 [1] of 180 nM was found for `Cc1cccc(C(CC(C)C)C(=O)Nc2ccc(-c3ccnc(C)c3)cc2)c1` (single isomer, unassigned; isomer 1) in this work.

An IC50 [1] of 160 nM was found for `Cc1cc(-c2ccc(NC(=O)C(C)c3cccc(N4CCN(c5ccccc5)CC4)c3)cc2)ccn1` (configuration not stated) in this work.

An IC50 [1] of 2130 nM was found for `Cc1cc(-c2ccc(NC(=O)C(O)c3cc(C(F)(F)F)cc(C(F)(F)F)c3)cc2)ccn1` (configuration not stated) in this work.

An IC50 [1] of 1530 nM was found for `Cc1cc(-c2ccc(/C=C3\CCCN([C@@H](C)c4ccc(F)cc4)C3=O)cc2)ccn1` in this work.

An IC50 [1] of 930 nM was found for `CNc1ccc(-c2cccc(C(C)C(=O)Nc3ccc(-c4ccnc(C)c4)cc3)c2)cn1` (configuration not stated) in this work.

In the case of `COc1cc(-c2ccnc(C)c2)ccc1NS(=O)(=O)c1cc(C(F)(F)F)cc(C(F)(F)F)c1`, the IC50 [1] is reported as 1830 nM, the microsomal CLint at 1 µM [2] is reported as 306 µL/min/mg and the microsomal CLint at 1 µM [3] is reported as > 399 µL/min/mg. It also gave an IC50 [4] of 1900 nM and an IC50 [5] of 2200 nM.

An IC50 [1] of 1350 nM was found for `Cc1cc(-c2ccc(NC(=O)Cc3cc(C(F)(F)F)cc(C(F)(F)F)c3)cn2)ccn1` in this work.

An IC50 [1] of 1110 nM was found for `Cc1cc(-c2ccc(NC(=O)Nc3cc(C(F)(F)F)cc(C(F)(F)F)c3)cc2)ccn1` in this work.

An IC50 [1] of 180 nM was found for `Cc1cc(-c2ccc(NC(=O)C(C)c3cccc(-c4ccc(NC(C)C)nc4)c3)cc2)ccn1` (configuration not stated) in this work.

An IC50 [1] of 660 nM was found for `Cc1cc(-c2ccc(NC(=O)C(C)c3cccc(-c4ccccc4)c3)cc2)ccn1` (configuration not stated) in this work.

In the case of `O=S(=O)(Nc1ccc(-c2cncnc2)cc1)c1cc(Cl)cc(Cl)c1`, the IC50 [1] is reported as > 10000 nM, the microsomal CLint at 1 µM [2] is reported as 45 µL/min/mg and the microsomal CLint at 1 µM [3] is reported as > 399 µL/min/mg. The IC50 [4] was 7200 nM and the IC50 [5] was 3500 nM.

An IC50 [1] of 2750 nM, a microsomal CLint at 1 µM [2] of 35 µL/min/mg and a microsomal CLint at 1 µM [3] of 85 µL/min/mg were found for `O=S(=O)(Nc1ccc(-c2ccncc2)cc1)c1cc(Cl)cc(Cl)c1` in this work. The IC50 [4] was 200 nM, the Kp at 2 h [6] was 0.09 and the IC50 [5] was 600 nM.

An IC50 [1] of 1450 nM was found for `COc1cc(NC(=O)Cc2cc(C(F)(F)F)cc(C(F)(F)F)c2)ccc1-n1cnc(C)c1` in this work.

An IC50 [1] of 70 nM was found for `Cc1cc(-c2ccc(NC(=O)C(C)c3cccc(-c4ccc(N5CCOCC5)cc4)c3)cc2)ccn1` (configuration not stated) in this work.

An IC50 [1] of 170 nM was found for `Cc1cc(-c2ccc(NC(=O)C(C)c3cccc(-c4ccc(N(C)C)nc4)c3)cc2)ccn1` (configuration not stated) in this work.

An IC50 [1] of 250 nM was found for `Cc1cc(-c2ccc(NC(=O)C(C)c3cccc(-c4ccc(C#N)cc4)c3)cc2)ccn1` (configuration not stated) in this work.

An IC50 [1] of 120 nM was found for `Cc1cc(-c2ccc(NC(=O)C(C)c3cccc(-c4ccc(N(C)C)cc4)c3)cc2)ccn1` (configuration not stated) in this work.

For `O=S(=O)(Nc1ccc(-c2ccco2)cc1)c1cc(Cl)cc(Cl)c1`, the IC50 [1] was > 10000 nM, the microsomal CLint at 1 µM [2] was > 399 µL/min/mg and the microsomal CLint at 1 µM [3] was > 399 µL/min/mg. For the same compound, the IC50 [4] was > 27000 nM.

An IC50 [1] of 650 nM was found for `Cc1cc(-c2ccc(NC(=O)C(C)c3cccc(-c4cnc(N5CCOCC5)nc4)c3)cc2)ccn1` (configuration not stated) in this work.

In the case of `O=S(=O)(Nc1ccc(-c2ncccn2)cc1)c1cc(Cl)cc(Cl)c1`, the IC50 [1] is reported as > 10000 nM, the microsomal CLint at 1 µM [2] is reported as > 399 µL/min/mg and the microsomal CLint at 1 µM [3] is reported as > 399 µL/min/mg. The IC50 [4] was > 27000 nM and the IC50 [5] was 16200 nM.

An IC50 [1] of 1380 nM was found for `Cc1cccc(C(CC(C)C)C(=O)Nc2ccc(-c3ccnc(C)c3)cc2)c1` (single isomer, unassigned; isomer 2) in this work.

An IC50 [1] of 70 nM was found for `Cc1cc(-c2ccc(NC(=O)[C@@H](C)c3cccc(-c4ccc(N5CCOCC5)cc4)c3)cc2)ccn1` in this work.

An IC50 [1] of 280 nM, a microsomal CLint at 1 µM [2] of 399 µL/min/mg and a microsomal CLint at 1 µM [3] of 290 µL/min/mg were found for `Cc1cc(-c2ccc(NS(=O)(=O)c3cc(C(F)(F)F)cc(C(F)(F)F)c3)cc2)ccn1` in this work. For the same compound, the IC50 [4] was 2000 nM and the IC50 [5] was > 27000 nM.

An IC50 [1] of 6000 nM was found for `Cc1cc(-c2ccc(NC(=O)C(C)c3ccccc3)cc2)ccn1` (configuration not stated) in this work.

An IC50 [1] of 460 nM, a microsomal CLint at 1 µM [2] of 18 µL/min/mg and a microsomal CLint at 1 µM [3] of 22 µL/min/mg were found for `Cc1cc(-c2ccc(NC(=O)Cc3cc(C(F)(F)F)cc(C(F)(F)F)c3)cc2)ccn1` in this work. For the same compound, the IC50 [4] was 13000 nM and the IC50 [5] was > 27000 nM.

An IC50 [1] of 210 nM, a microsomal CLint at 1 µM [2] of 371 µL/min/mg and a microsomal CLint at 1 µM [3] of 324 µL/min/mg were found for `CCc1cc(-c2ccc(NS(=O)(=O)c3cc(C(F)(F)F)cc(C(F)(F)F)c3)cc2)ccn1` in this work. It also gave an IC50 [4] of 700 nM and an IC50 [5] of 12200 nM.

For `Cc1cc(-c2ccc(NC(=O)Cc3cc(C(F)(F)F)cc(C(F)(F)F)c3)nc2)ccn1`, the IC50 [1] was > 10000 nM.

An IC50 [1] of 140 nM was found for `CC(=O)c1ccc(-c2cccc(C(C)C(=O)Nc3ccc(-c4ccnc(C)c4)cc3)c2)cc1` (configuration not stated) in this work.

An IC50 [1] of 31 nM was found for `Cc1cc(-c2ccc(NC(=O)[C@H](C)c3cccc(-c4ccc(N5CCOCC5)cc4)c3)cc2)ccn1` in this work.

An IC50 [1] of 1050 nM was found for `CCC(C(=O)Nc1ccc(-c2ccnc(C)c2)cc1)c1cccc(C)c1` (configuration not stated) in this work.

In the case of `Cc1cc(-c2ccc(NC(=O)C(C)c3cccc(-c4ccccn4)c3)cc2)ccn1` (configuration not stated), the IC50 [1] is reported as > 10000 nM.

An IC50 [1] of 2780 nM was found for `Cc1cccc(CC(=O)Nc2ccc(-c3ccnc(C)c3)cc2)c1` in this work.

An IC50 [1] of 260 nM was found for `Cc1cc(-c2ccc(NC(=O)C(C)c3cccc(-c4ccc(C(=O)N(C)C)cc4)c3)cc2)ccn1` (configuration not stated) in this work.
